Literature values, collected in paper PMC7751758, “Repurposing Sigma-1 Receptor Ligands for COVID-19 Therapy?” (Frontiers in Pharmacology, 2020).
Several values for one entry are separate records, joined by “and”; a condition that tells them apart may be missing. Equal values may be shown once. Entries after “also recorded” stand apart in the source; their conditions may differ. Read-outs that look alike come from different tables or passages of the source.

Assays:
EBOV [1] = test system: EBOV
Sigma-1 receptor = conditions: for IC50: read-out: Sigma-1 receptor affinity IC50; for Ki: read-out: Sigma-1 receptor affinity Ki
EBOV [2] = conditions: mouse, in vivo
[3] = test system: HCV-induced cytopathic effect on the engineered cell line n4mBid; conditions: leads of the cell protection screen; ref Chockalingam et al., 2010
H5N1 virus = conditions: mouse, in vivo
[4] = test system: H5N1 virus in A549 lung epithelial cells
HCoV-229E = conditions: replication in cell culture
[5] = test system: HCV infection of human hepatocarcinoma Huh-7 cells; conditions: absence of cytotoxicity at low micromolar and submicromolar concentrations; ref Gastaminza et al., 2010
EBV = conditions: infection of B lymphocytes
CHIKV = conditions: cytopathic effect induced by Chikungunya virus and other alphaviruses (Semliki Forest virus and Sindbis virus)
HCV infection = conditions: without significantly reducing cell biomass; ref Mingorance et al., 2014
[6] = test system: SARS-CoV-2 in Huh-7 cells; conditions: for antiviral potency: devoid of cytotoxicity, ref Mirabelli et al., 2020
[7] = test system: SARS-CoV-2 in iPSC-derived alveolar epithelial type 2 cells (iAEC2s); conditions: ref Mirabelli et al., 2020, read-out: IC50 against SARS-CoV-2
Huh-7 cells = conditions: ref Mirabelli et al., 2020; read-out: CC50 (cell toxicity)
COVID-19 = conditions: for decreasing the likelihood of death or speeding recovery: large, randomized clinical trial in hospitalized patients, ref FDA communication
[8] = associated with bioaccumulation of the drugs; ref Palmeira et al., 2020
HCoV-OC43 [9] = conditions: replication in HRT-18 cells, ref Keyaerts et al., 2009
EBOV [10] = conditions: guinea pig, in vivo
HCoV-OC43 [11] = conditions: mothers treated daily with chloroquine (15 mg/kg); ref Keyaerts et al., 2009
Ebola = conditions: in vivo
HCV = conditions: entry and assembly steps in Huh-7.5.1 cells, ref Cheng et al., 2013
HIV = conditions: exposure to cocaine, by activating Sig-1R; ref Roth et al., 2005

Structure (SMILES): CC(C)COCC(CN(Cc1ccccc1)c1ccccc1)N1CCCC1 (centres unmarked) [Bepridil]
- Antiviral activity: Virus (EBOV [1]): active
- IC50 (Sigma-1 receptor): 365 nM
- protection in a murine EBOV infection model (EBOV [2]): protective ability

Structure (SMILES): CC(C(O)c1ccc(O)cc1)N1CCC(Cc2ccccc2)CC1 (centres unmarked) [Ifenprodil]
- alleviation of HCV-induced cytopathic effect (n4mBid cell viability relative to untreated cells) [3]: increase n4mBid cell viability; also recorded: inhibit the HCV-induced cytopathic effect
- IC50 (Sigma-1 receptor): 5.5 nM
- leukocyte infiltration and lung injury (H5N1 virus): markedly decreased
- survival (H5N1 virus): improved survival
- cell viability in vitro [4]: increased cell viability

Structure (SMILES): CN(C)C(=O)C(CCN1CCC(O)(c2ccc(Cl)cc2)CC1)(c1ccccc1)c1ccccc1 [Loperamide]
- Antiviral activity: Virus (HCoV-229E; ref de Wilde et al., 2014, listed as loperamide): inhibited the replication
- Antiviral activity: Virus (SARS-CoV): inhibited the replication

Structure (SMILES): CN1CCN(CCCN2c3ccccc3Sc3ccc(Cl)cc32)CC1 [Prochlorperazine]
- Antiviral activity: Virus (EBOV [1]): active
- cellular toxicity (Ebola virus (EBOV)): < 30%
- viral inhibition (Ebola virus (EBOV)): > 50%
- reduction in HCV infection of Huh-7 cells, as compared to the vehicle DMSO control [5]: > 85%
- Antiviral activity: Virus (EBV; ref Nemerow and Cooper, 1984): inhibit infection of B lymphocytes

Structure (SMILES): O=C(CCCN1CCC(O)(c2ccc(Cl)cc2)CC1)c1ccc(F)cc1 [Haloperidol]
- reduction in HCV infection of Huh-7 cells, as compared to the vehicle DMSO control [5]: > 85%
- Antiviral activity: Virus (EBV; ref Nemerow and Cooper, 1984, listed as haloperidol): inhibit infection of B lymphocytes

Structure (SMILES): CCSc1ccc2c(c1)N(CCCN1CCN(C)CC1)c1ccccc1S2 [Thiethylperazine]
- IC50 (Sigma-1 receptor): 528 nM
- Antiviral activity: Virus (MERS-CoV): in vitro activity
- Antiviral activity: Virus (SARS-CoV): in vitro activity; also recorded: SARS-CoV SARS-CoV-2
- Antiviral activity: Virus (CHIKV; ref Pohjala et al., 2011, listed as thiethylperazine): inhibition of the cytopathic effect

Structure (SMILES): CN(C)CCC=C1c2ccccc2COc2ccccc21 [Doxepin]
- reduction in HCV infection of Huh-7 cells, as compared to the vehicle DMSO control [5]: > 85%
- Antiviral activity: Virus (CHIKV; ref Pohjala et al., 2011, listed as doxepin): inhibition of the cytopathic effect

Structure (SMILES): CN1CCN(CCCN2c3ccccc3Sc3ccc(C(F)(F)F)cc32)CC1 [Trifluoperazine]
- alleviation of HCV-induced cytopathic effect (n4mBid cell viability relative to untreated cells) [3]: increase n4mBid cell viability
- reduction in HCV infection of Huh-7 cells, as compared to the vehicle DMSO control [5]: > 85%
- Antiviral activity: Virus (EBV; ref Nemerow and Cooper, 1984, listed as trifluoperazine): inhibit infection of B lymphocytes

Structure (SMILES): CN(C)CCCN1c2ccccc2Sc2ccc(Cl)cc21 [Chlorpromazine]
- Ki (Sigma-1 receptor): 146 nM
- Antiviral activity: Virus (MERS-CoV): in vitro activity
- Antiviral activity: Virus (HCoV-229E; ref de Wilde et al., 2014, listed as chlorpromazine): inhibited the replication
- Antiviral activity: Virus (SARS-CoV): inhibited the replication; also recorded: in vitro activity; also recorded: SARS-CoVSARS-CoV-2
- reduction of HCV infection (HCV infection): more than one order of magnitude
- Antiviral activity: Virus (EBV; ref Nemerow and Cooper, 1984, listed as chlorpromazine): inhibit infection of B lymphocytes
- Antiviral activity: Virus (CHIKV; ref Pohjala et al., 2011, listed as chlorpromazine): inhibition of the cytopathic effect

Structure (SMILES): OCCN1CCN(CCCN2c3ccccc3Sc3ccc(Cl)cc32)CC1 [Perphenazine]
- alleviation of HCV-induced cytopathic effect (n4mBid cell viability relative to untreated cells) [3]: increase n4mBid cell viability
- reduction of HCV infection (HCV infection): more than one order of magnitude
- Antiviral activity: Virus (CHIKV; ref Pohjala et al., 2011, listed as perphenazine): inhibition of the cytopathic effect

Structure (SMILES): CN1CCC(CN2c3ccccc3Sc3ccccc32)C1 (centres unmarked) [Methdilazine]
- IC50 (Sigma-1 receptor): 167 nM
- Antiviral activity: Virus (CHIKV; ref Pohjala et al., 2011, listed as methdilazine): inhibition of the cytopathic effect

Structure (SMILES): Cc1cc(OCCN2CCOCC2)nn1-c1ccc2ccccc2c1 [E-52862 (S1RA)]
- antiviral potency [6]: below 1 µM
- IC50 ([6]; ref Mirabelli et al., 2020, read-out: IC50 against SARS-CoV-2): 222 nM
- IC50 [7]: 1000 nM
- CC50 (Huh-7 cells): > 5000 nM

Structure (SMILES): CCN(CC)CCCC(C)Nc1ccnc2cc(Cl)ccc12 (centres unmarked) [Chloroquine]
- decreasing the likelihood of death or speeding recovery (COVID-19; 2020): no benefit
- IC50 (Sigma-1 receptor): 2300 nM
- Ki (Sigma-1 receptor): 109 nM
- Antiviral activity: Virus (MERS-CoV): in vitro activity
- side effects [8]: serious retinopathies and cardiopathies
- Antiviral activity: Virus (HCoV-OC43 [9]): inhibited HCoV-OC43 replication
- Antiviral activity: Virus (HCoV-229E; ref de Wilde et al., 2014, listed as chloroquine): inhibited the replication
- Antiviral activity: Virus (SARS-CoV): inhibited the replication of SARS-CoV; also recorded: in vitro activity
- cellular toxicity (Ebola virus (EBOV)): < 30%
- viral inhibition (Ebola virus (EBOV)): > 50%
- survival (EBOV [10]): none of the tested doses increased survival
- Antiviral activity: Virus (CHIKV; ref Pohjala et al., 2011, listed as chloroquine): inhibition of the cytopathic effect
- HCoV-OC43-induced death in newborn mice (HCoV-OC43 [11]): prevented HCoV-OC43-induced death
- survival of infected mice (EBOV [2]): increased survival

Structure (SMILES): CCCCc1oc2ccccc2c1C(=O)c1cc(I)c(OCCN(CC)CC)c(I)c1 [Amiodarone]
- outcome of a patient with COVID-19-related respiratory failure (COVID-19; case report, off-label short therapy 5 days with supportive measures, ref Castaldo et al., 2020): recovered
- case fatality rate compared with local historical data (Ebola): decrease in case fatality rate
- Antiviral activity: Virus (SARS-CoV): inhibit the spreading in vitro of SARS-CoV
- antiviral potency [6]: below 1 µM
- viral inhibition (Ebola virus (EBOV)): > 50%
- Antiviral activity: Virus (HCV): inhibit
- survival of infected mice (EBOV [2]): increased survival

Structure (SMILES): CC[C@H]1OC(=O)[C@H](C)[C@@H](O[C@H]2C[C@@](C)(OC)[C@@H](O)[C@H](C)O2)[C@H](C)[C@@H](O[C@@H]2O[C@H](C)C[C@H](N(C)C)[C@H]2O)[C@](C)(O)C[C@@H](C)CN(C)[C@H](C)[C@@H](O)[C@]1(C)O [azithromycin]
- survival (EBOV [10]): none of the tested doses increased survival
- survival of infected mice (EBOV [2]): increased survival

Structure (SMILES): CC(CN1c2ccccc2Sc2ccccc21)N(C)C (centres unmarked) [Promethazine]
- IC50 (Sigma-1 receptor): 857 nM
- Antiviral activity: Virus (MERS-CoV): in vitro activity
- Antiviral activity: Virus (SARS-CoV): in vitro activity; also recorded: SARS-CoV SARS-CoV-2
- Antiviral activity: Virus (EBV; ref Nemerow and Cooper, 1984, listed as promethazine): inhibit infection of B lymphocytes

Structure (SMILES): COC(=O)[C@H]1[C@@H](OC(=O)c2ccccc2)C[C@@H]2CC[C@H]1N2C [cocaine]
- HIV infection (HIV): enhance HIV infection

Structure (SMILES): COc1ccc(CCN(C)CCCC(C#N)(c2ccc(OC)c(OC)c2)C(C)C)cc1OC (centres unmarked) [Verapamil]
- antiviral potency [6]: below 1 µM

Structure (SMILES): CN(C)CCC=C1c2ccccc2CCc2ccccc21 [Amitriptyline]
- alleviation of HCV-induced cytopathic effect (n4mBid cell viability relative to untreated cells) [3]: increase n4mBid cell viability; also recorded: inhibit the HCV-induced cytopathic effect
- IC50 (Sigma-1 receptor): 216 nM and 300 nM
- Ki (Sigma-1 receptor): 287 nM
- infiltrating cell count (H5N1 virus): reduced
- lung edema and survival (H5N1 virus): improved
- lung injury (H5N1 virus): decreased
- viability of A549 cells infected with H5N1 [4]: increased viability

Structure (SMILES): CSc1ccc2c(c1)N(CCC1CCCCN1C)c1ccccc1S2 (centres unmarked) [Thioridazine]
- Antiviral activity: Virus (EBOV [1]): active
- Antiviral activity: Virus (CHIKV; ref Pohjala et al., 2011, listed as thioridazine): inhibition of the cytopathic effect

Structure (SMILES): CCN(CCO)CCCC(C)Nc1ccnc2cc(Cl)ccc12 (centres unmarked) [Hydroxychloroquine]
- efficacy in COVID-19 patients (COVID-19; first clinical studies, ref Geleris et al., 2020, Mitjà et al., Roustit et al.): do not support efficacy
- adverse drug reactions in patients with COVID-19 (COVID-19; human, in vivo): serious adverse drug reactions
- decreasing the likelihood of death or speeding recovery (COVID-19; 2020): no benefit
- IC50 (Sigma-1 receptor): 2120 nM
- Antiviral activity: Virus (MERS-CoV): in vitro activity
- side effects [8]: serious retinopathies and cardiopathies
- Antiviral activity: Virus (SARS-CoV): in vitro activity

Structure (SMILES): Cc1cccc(C)c1OCC(=O)N[C@@H](Cc1ccccc1)[C@@H](O)C[C@H](Cc1ccccc1)NC(=O)[C@H](C(C)C)N1CCCNC1=O [lopinavir]
- Antiviral activity: Virus (HCoV-229E; ref de Wilde et al., 2014): inhibited the replication
- Antiviral activity: Virus (SARS-CoV): inhibited the replication

Structure (SMILES): CN[C@H]1CC[C@@H](c2ccc(Cl)c(Cl)c2)c2ccccc21 [Sertraline]
- Antiviral activity: Virus (EBOV [1]): active
- protection in a murine EBOV infection model (EBOV [2]): protective ability
